# According to patent US12427137B2, “Method for reducing methane production in animal stomach” (CHINA AGRICULTURAL UNIVERSITY, priority 2022, dated 2025):
# Marks after values point to notes of the source that are not given here.
# Legend:
# [1] = Melatonin concentration in rumen fluids of cows fed with melatonin; assay type: in vivo; details: cows fed 15 mg/kg/day, days 7 to 21, FIG. 2
# Description: (§1) In vivo experiment: twenty lactating cows with similar ages and body conditions were selected and randomly divided into two groups, a control group (fed with digestible paper only) and a melatonin-fed group (fed with melatonin wrapped in digestible paper, 15 mg/kg/day). Each group had 10 cows. The cows were fed every morning after milking. The treatment lasted for 21 days. The rumen fluids were collected with rumen collection tubes before the morning feeding on days 0, 7, 14 and 21, respectively. The concentrations of melatonin in the rumen fluids were measured by liquid chromatography tandem mass spectrometry (LC-MS/MS). The breathing gas of the cows was collected by a breathing gas collection system to detect the methane content therein. Meanwhile, the information (e.g., the health condition and milk quality) of the cows was also recorded to monitor the influence of the feeding experiment on the dairy production.
# Twenty lactating cows with similar ages and body conditions were selected and randomly divided into two groups, a control group (CON, fed with digestible paper only) and a melatonin-fed group (MT, fed with melatonin wrapped in digestible paper). Each group had 10 cows. […] And the melatonin contents in the rumen fluids were determined by […]. […]
# [2] = test system: archaea / methanogenic genera of the rumen microbial flora; test: Metagenome sequencing of in vitro fermentation rumen fluids (archaea); assay type: cell-based, cows; details: melatonin treatment vs control, FIG. 7B
# Description: Metagenome sequencing was performed in order to further study the changes in the rumen microbial flora. In addition to the analysis of the gene table, the metagenome sequencing can also analyze the microbial compositions of the samples. Thus, it can obtain more information on the species, including phages, viruses, fungi, archaea and the like, other than bacteria. […] Due to the discovery of the methane-reducing effect of melatonin, we focused on the changes of archaea. 72 species archaea species, which had different abundance between the control and melatonin groups, were screened. […] Thus, melatonin can reduce the methane production by reducing the abundance of most methanogenic microbial flora.
# [3] = test system: rumen fluids (in vitro rumen fluid fermentation); test: Volatile fatty acids (VFAs) from the in vitro rumen fluid fermentation, gas chromatography; assay type: cell-based, cows; details: 10^−3 mol/L melatonin, 48 h
# Description: Rumen microorganisms can degrade plant fibers and produce VFAs, which in turn provide energy substances to the hosts. Thus, we analyzed the production of VFAs from the in vitro fermentation system. Based on the above experiments, we determined to in vitro treat the rumen fluids with 10^−3 mol/L of melatonin solution for 48 h. The levels of six VFAs (i.e., acetate (A), propionate (P), butyrate (B), isobutyrate, valerate and isovalerate), were detected in the in vitro rumen fluid fermentation solution by gas chromatography. […] In the rumens of ruminant animals, CO2 and H2 are mainly produced during the conversion of pyruvate into acetate and butyrate in glycolysis, and glucose can be generated from propionate. The A/P ratios of the two groups were compared, 3.00 for the control group and 3.372 for the melatonin group.
# [4] = test system: rumen fluids of cows (in vitro rumen fermentation system); test: In vitro fermentation of rumen fluids of cows, methane content by gas chromatography; assay type: cell-based; details: for methane production of the in vitro rumen fermentation system: FIG. 1
# Text: Rumen fluids were collected from fistulated cows before morning feeding, filtered through 4 layers of gauze, and then brought back to the laboratory by placing in a thermos flask. The experiment comprised a control group (CON) and melatonin groups (MT: 10^−3 mol/L, 10^−5 mol/L, 10^−7 mol/L). The cattle farm Total Mixed Rations (TMR) was used as the fermentation substrate, and artificial saliva was used as the matrix. Oxygen in the fermentation flasks was replaced with nitrogen. Then, the rumen fluids were incubated anaerobically at 39° C. in an incubator, which was connected to a gas bag to collect the fermentation gas. The methane content in the gas bag was detected by gas chromatography. In vitro experiment: melatonin was added during the in vitro simulation of rumen fermentation. The in vitro rumen fermentation system of 75 mL in each bottle comprises 0.5 g TMR powder, 50 mL of artificial saliva and 25 mL of filtered rumen fluid. The 10^−3 mol/L, 10^−5 mol/L and 10^−7 mol/L melatonin groups (melatonin dissolved in a small amount of DMSO and diluted to these concentrations with saline) and a control group (only solvent, i.e., a small amount of DMSO+saline) were set up separately. For each group, the samples were collected at the fermentation times 2 h, 4 h, 8 h, 24 h and 48 h. Three replicates were set for each sample. After fermenting anaerobically at 39° C., the gas bags and fermentation liquid were collected. Gas chromatography was used to detect the methane content in the gas of the gas bags. The obtained data were analyzed by one-way analysis of variance (One Way ANOVA) by means of SPSS® (Statistical Product and Service Solutions) statistical software. p<0.05 indicated significant difference and p<0.01 indicated extremely significant difference. The DunCan test was used for multiple comparisons. The results were expressed as means±SEM. Addition form I: adding melatonin powder (MT p) directly to the fermentation system to a final concentration of 2×10−3 mol/L. Addition form II: adding concentrated melatonin solution (MT s) of 10^−3 mol/L at 0 h and 24 h respectively.
# [5] = test system: rumen microbial flora; test: Microorganism compositions of the in vitro rumen fermentation system (Alpha diversity, differential species analysis); assay type: cell-based, cows
# Description: Alpha diversity can reflect the abundance and diversity of microbial flora. […] In order to clarify the species classification information of the microbial flora, the cluster analysis was performed to generate OTUs. FIGS. 5E-5F show the cluster diagram of the annotations at order level. […] There were significant differences in the relative abundance of Clostridiales, Bacteroides, Monadales, Desulfovibrionales and the like. The abundance of the microbial flora (e.g. Prevotella spp. and Succiniclasticum spp.) producing propionate and butyrate decreased, while the abundance of the microbial flora (e.g., Bifidobacterium) producing acetate increased. […] Each circle represents a species at the specific taxonomic level, and the size of the circle is positively correlated with the relative abundance of the species. The species with no significant differences are uniformly colored yellow, and the biomarkers for the species with differences are indicated with the color of the corresponding group.
# [6] = test system: lactating cows; test: Methane content in respiratory gases of cows fed with melatonin; assay type: in vivo; details: fed 15 mg/kg/day
# Description: as §1, with “production. Lactating cows were fed with melatonin powder of 15 mg/kg/day for 21 days. The respiratory gases were collected from each group at days 0, 7, 14 and 21 by using a respiratory gas collection system. The methane contents in the gases were detected by gas chromatography. […] In addition, this effect can be maintained for a longer period of time.” for “production.”
compound,measurement,setting,value
COc1ccc2[nH]cc(CCNC(C)=O)c2c1 [melatonin],melatonin concentrations in the rumen fluids,[1],significantly increased
same,"abundance of most methanogenic genera (Halobacterium, Methanoplanus, Methanococcoides, Methanoculleus, Methanothrix spp.)",[2],reduced
same,level of acetic acid in rumen fluids,[3]; FIG. 4,significantly reduced
same,level of propionic acid in rumen fluids,[3]; FIG. 4,significantly reduced
same,A/P ratio (acetate/propionate),[3]; control group 3.00,3.372
same,methane production of the in vitro fermentation,"[4]; 10^−3 mol/L, 48 h, vs control",significantly reduced
same,methane production of the rumen fermentation liquid,"[4]; 10^−3 to 10^−7 mol/L, 4 h to 8 h",reduced
same,reduction of methane production as compared with the control group,"[4]; 4 h, all concentrations of melatonin groups (10^−3 to 10^−7 mol/L)",about 15%
same,methane content (%),"[4]; MT 10^−3 mol/L, fermentation time 2 h",0.99 ± 0.05%
same,methane content (%),"[4]; MT 10^−3 mol/L, fermentation time 4 h",3.42 ± 0.13%
same,methane content (%),"[4]; MT 10^−3 mol/L, fermentation time 8 h",4.43 ± 0.39%
same,methane content (%),"[4]; MT 10^−3 mol/L, fermentation time 24 h",9.68 ± 0.07%
same,methane content (%),"[4]; MT 10^−3 mol/L, fermentation time 48 h",10.79 ± 0.53^b %
same,methane content (%),"[4]; MT 10^−5 mol/L, fermentation time 2 h",1.09 ± 0.06%
same,methane content (%),"[4]; MT 10^−5 mol/L, fermentation time 4 h",3.47 ± 0.07%
same,methane content (%),"[4]; MT 10^−5 mol/L, fermentation time 8 h",4.47 ± 0.39%
same,methane content (%),"[4]; MT 10^−5 mol/L, fermentation time 24 h",10.4 ± 0.24%
same,methane content (%),"[4]; MT 10^−5 mol/L, fermentation time 48 h",12.65 ± 0.45^a %
same,methane content (%),"[4]; MT 10^−7 mol/L, fermentation time 2 h",1.03 ± 0.07%
same,methane content (%),"[4]; MT 10^−7 mol/L, fermentation time 4 h",3.45 ± 0.05%
same,methane content (%),"[4]; MT 10^−7 mol/L, fermentation time 8 h",5.16 ± 0.14%
same,methane content (%),"[4]; MT 10^−7 mol/L, fermentation time 24 h",10.6 ± 0.44%
same,methane content (%),"[4]; MT 10^−7 mol/L, fermentation time 48 h",11.25 ± 0.67^a %
same,methane production of the in vitro rumen fermentation system,"[4]; addition form I: melatonin powder (MT p), final concentration 2×10−3 mol/L, 48 h",significantly reduced
same,methane production of the in vitro rumen fermentation system,"[4]; addition form II: concentrated melatonin solution (MT s) of 10^−3 mol/L at 0 h and 24 h, 48 h",significantly reduced
same,"abundance of the microbial flora producing acetate (e.g., Bifidobacterium)",[5]; FIGS. 6A-6B,increased
same,abundance of the microbial flora producing propionate and butyrate (e.g. Prevotella spp. and Succiniclasticum spp.),[5]; FIGS. 6A-6B,decreased
same,diversity of rumen microbial flora (Alpha diversity),"[5]; melatonin added to the fermentation system, FIGS. 5A-5D",increased
same,"compositions of the microbial flora (relative abundance of orders Clostridiales, Bacteroides, Monadales, Desulfovibrionales)","[5]; melatonin treatment, FIGS. 5E-5F",significant changes
same,methane production from the respiration of the cows,"[6]; day 14, FIG. 3",decreased significantly
same,methane production from the respiration of the cows,"[6]; day 21, FIG. 3",decreased to a similar extent as at day 14
same,methane production from the respiration of the cows,"[6]; from day 7, FIG. 3",decreased
